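The compound was tested at five concentrations on cells cultured in 96-well plates, with a 48-hour exposure period. Abbreviation: GI50, concentration required for 50% inhibition of growth.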 Calls of active or inactive are those of the source. No stated cut-off is given here; in the data, active = GI50 up to about 1.1 µM and inactive = higher.
Legend:
Experiment in all cases: DTP human tumour cell line panel, 48 h
786-0 = system: 786-0
A498 = system: A498
A549 = system: A549
ACHN = system: ACHN
BT-549 = system: BT-549
CAKI-1 = system: CAKI-1
COLO 205 = system: COLO 205
DU-145 = system: DU-145
EKVX = system: EKVX
HCC 2998 = system: HCC 2998
HCT-116 = system: HCT-116
HCT-15 = system: HCT-15
HL-60 = system: HL-60
HOP-62 = system: HOP-62
HOP-92 = system: HOP-92
HT-29 = system: HT-29
Hs-578T = system: Hs-578T
IGROV-1 = system: IGROV-1
K562 = system: K562
KM12 = system: KM12
LOX IMVI = system: LOX IMVI
M14 = system: M14
MCF7 = system: MCF7
MDA-MB-231 = system: MDA-MB-231
MDA-MB-435 = system: MDA-MB-435
MDA-N = system: MDA-N
MOLT-4 = system: MOLT-4
Malme-3M = system: Malme-3M
NCI-H226 = system: NCI-H226
NCI-H460 = system: NCI-H460
NCI-H522 = system: NCI-H522
NCI/ADR-RES = system: NCI/ADR-RES
OVCAR-3 = system: OVCAR-3
OVCAR-4 = system: OVCAR-4
OVCAR-5 = system: OVCAR-5
OVCAR-8 = system: OVCAR-8
PC-3 = system: PC-3
RPMI-8226 = system: RPMI-8226
RXF 393 = system: RXF 393
SF-268 = system: SF-268
SF-295 = system: SF-295
SF-539 = system: SF-539
SK-MEL-28 = system: SK-MEL-28
SK-MEL-2 = system: SK-MEL-2
SK-MEL-5 = system: SK-MEL-5
SK-OV-3 = system: SK-OV-3
SN12C = system: SN12C
SNB-19 = system: SNB-19
SNB-75 = system: SNB-75
SW-620 = system: SW-620
T47D = system: T47D
TK-10 = system: TK-10
U-251 = system: U-251
UACC-257 = system: UACC-257
UACC-62 = system: UACC-62
UO-31 = system: UO-31
CCRF-CEM = system: CCRF-CEM
NCI-H23 = system: NCI-H23

For `O=C(O)c1c(Br)c(Br)c(Br)c(Br)c1C1c2ccc(O)cc2Oc2cc(O)ccc21`, the GI50 (786-0) was > 100 µM (inactive), the GI50 (A498) was > 100 µM (inactive) and the GI50 (A549) was > 100 µM (inactive). For the same compound, the GI50 (ACHN) was > 100 µM (inactive), the GI50 (BT-549) was > 100 µM (inactive) and the GI50 (CAKI-1) was > 100 µM (inactive). For the same compound, the GI50 (COLO 205) was > 100 µM (inactive), the GI50 (DU-145) was > 100 µM (inactive) and the GI50 (EKVX) was > 100 µM (inactive). For the same compound, the GI50 (HCC 2998) was 68.1 µM (inactive), the GI50 (HCT-116) was > 100 µM (inactive) and the GI50 (HCT-15) was greater than 100 µM. The GI50 (HL-60) was 0.232 µM (active), the GI50 (HOP-62) was > 100 µM (inactive) and the GI50 (HOP-92) was > 100 µM (inactive). For the same compound, the GI50 (HT-29) was > 100 µM (inactive), the GI50 (Hs-578T) was > 100 µM (inactive) and the GI50 (IGROV-1) was > 100 µM (inactive). For the same compound, the GI50 (K562) was > 100 µM (inactive), the GI50 (KM12) was > 100 µM (inactive) and the GI50 (LOX IMVI) was > 100 µM (inactive). For the same compound, the GI50 (M14) was > 100 µM (inactive), the GI50 (MCF7) was > 100 µM (inactive) and the GI50 (MDA-MB-231) was > 100 µM (inactive). The GI50 (MDA-MB-435) was > 100 µM (inactive), the GI50 (MDA-N) was > 100 µM (inactive) and the GI50 (MOLT-4) was 3.67 µM (inactive). For the same compound, the GI50 (Malme-3M) was > 100 µM (inactive), the GI50 (NCI-H226) was > 100 µM (inactive) and the GI50 (NCI-H460) was > 100 µM (inactive). For the same compound, the GI50 (NCI-H522) was > 100 µM (inactive), the GI50 (NCI/ADR-RES) was > 100 µM (inactive) and the GI50 (OVCAR-3) was > 100 µM (inactive). The GI50 (OVCAR-4) was > 100 µM (inactive), the GI50 (OVCAR-5) was > 100 µM (inactive) and the GI50 (OVCAR-8) was > 100 µM (inactive). The GI50 (PC-3) was > 100 µM (inactive), the GI50 (RPMI-8226) was > 100 µM (inactive) and the GI50 (RXF 393) was > 100 µM (inactive). For the same compound, the GI50 (SF-268) was > 100 µM (inactive), the GI50 (SF-295) was > 100 µM (inactive) and the GI50 (SF-539) was > 100 µM (inactive). For the same compound, the GI50 (SK-MEL-28) was > 100 µM (inactive), the GI50 (SK-MEL-2) was > 100 µM (inactive) and the GI50 (SK-MEL-5) was > 100 µM (inactive). For the same compound, the GI50 (SK-OV-3) was > 100 µM (inactive), the GI50 (SN12C) was > 100 µM (inactive) and the GI50 (SNB-19) was > 100 µM (inactive). For the same compound, the GI50 (SNB-75) was > 100 µM (inactive), the GI50 (SW-620) was > 100 µM (inactive) and the GI50 (T47D) was > 100 µM (inactive). For the same compound, the GI50 (TK-10) was > 100 µM (inactive), the GI50 (U-251) was > 100 µM (inactive) and the GI50 (UACC-257) was > 100 µM (inactive). The GI50 (UACC-62) was > 100 µM (inactive) and the GI50 (UO-31) was 33 µM (inactive).

In the case of `Brc1cccc(C2ON=C(c3ccccc3)N2C23CC4CC(CC(C4)C2)C3)c1` (stereo not drawn), the GI50 (786-0) is reported as > 10 µM (inactive), the GI50 (A498) is reported as > 10 µM (inactive) and the GI50 (A549) is reported as > 10 µM (inactive). For the same compound, the GI50 (ACHN) was > 10 µM (inactive), the GI50 (BT-549) was > 10 µM (inactive) and the GI50 (CAKI-1) was > 10 µM (inactive). The GI50 (CCRF-CEM) was > 10 µM (inactive), the GI50 (COLO 205) was > 10 µM (inactive) and the GI50 (DU-145) was > 10 µM (inactive). For the same compound, the GI50 (EKVX) was > 10 µM (inactive), the GI50 (HCC 2998) was > 10 µM (inactive) and the GI50 (HCT-116) was > 10 µM (inactive). The GI50 (HCT-15) was greater than 10 µM, the GI50 (HOP-62) was > 10 µM (inactive) and the GI50 (HOP-92) was 5.42 µM (inactive). For the same compound, the GI50 (HT-29) was > 10 µM (inactive), the GI50 (Hs-578T) was > 10 µM (inactive) and the GI50 (IGROV-1) was > 10 µM (inactive). For the same compound, the GI50 (K562) was > 10 µM (inactive), the GI50 (KM12) was > 10 µM (inactive) and the GI50 (LOX IMVI) was > 10 µM (inactive). The GI50 (M14) was > 10 µM (inactive), the GI50 (MCF7) was > 10 µM (inactive) and the GI50 (MDA-MB-231) was > 10 µM (inactive). For the same compound, the GI50 (MDA-MB-435) was > 10 µM (inactive), the GI50 (MDA-N) was > 10 µM (inactive) and the GI50 (MOLT-4) was > 10 µM (inactive). The GI50 (Malme-3M) was > 10 µM (inactive), the GI50 (NCI-H226) was > 10 µM (inactive) and the GI50 (NCI-H23) was > 10 µM (inactive). For the same compound, the GI50 (NCI-H460) was > 10 µM (inactive), the GI50 (NCI-H522) was > 10 µM (inactive) and the GI50 (NCI/ADR-RES) was > 10 µM (inactive). For the same compound, the GI50 (OVCAR-3) was > 10 µM (inactive), the GI50 (OVCAR-4) was > 10 µM (inactive) and the GI50 (OVCAR-5) was > 10 µM (inactive). The GI50 (OVCAR-8) was > 10 µM (inactive), the GI50 (PC-3) was > 10 µM (inactive) and the GI50 (RPMI-8226) was > 10 µM (inactive). For the same compound, the GI50 (RXF 393) was > 10 µM (inactive), the GI50 (SF-268) was > 10 µM (inactive) and the GI50 (SF-295) was > 10 µM (inactive). The GI50 (SF-539) was > 10 µM (inactive), the GI50 (SK-MEL-28) was > 10 µM (inactive) and the GI50 (SK-MEL-2) was > 10 µM (inactive). For the same compound, the GI50 (SK-MEL-5) was > 10 µM (inactive), the GI50 (SK-OV-3) was > 10 µM (inactive) and the GI50 (SN12C) was > 10 µM (inactive). For the same compound, the GI50 (SNB-19) was > 10 µM (inactive), the GI50 (SNB-75) was 6.19 µM (inactive) and the GI50 (SW-620) was > 10 µM (inactive). For the same compound, the GI50 (T47D) was > 10 µM (inactive), the GI50 (TK-10) was > 10 µM (inactive) and the GI50 (U-251) was > 10 µM (inactive). The GI50 (UACC-257) was > 10 µM (inactive), the GI50 (UACC-62) was > 10 µM (inactive) and the GI50 (UO-31) was > 10 µM (inactive).

From ChEMBL document CHEMBL1201862, “PubChem BioAssay data set” (2004)
